What follows are compounds tested against Serine/threonine-protein kinase PAK 4 (Homo sapiens) (UniProt O96013) (assay: PAK4 kinase ligand binding by thermal shift, biophysical, human, DSF, SYPRO orange (AID 389)). Conditions: recombinant PAK4 DSF thermal shift, at 10 µM, protein 2 µM, buffer 10 mM HEPES, pH 7.5, NaCl 150 mM, hits give high values.
Chain of Serine/threonine-protein kinase PAK 4 (Homo sapiens) (O96013 whole entry, looked up): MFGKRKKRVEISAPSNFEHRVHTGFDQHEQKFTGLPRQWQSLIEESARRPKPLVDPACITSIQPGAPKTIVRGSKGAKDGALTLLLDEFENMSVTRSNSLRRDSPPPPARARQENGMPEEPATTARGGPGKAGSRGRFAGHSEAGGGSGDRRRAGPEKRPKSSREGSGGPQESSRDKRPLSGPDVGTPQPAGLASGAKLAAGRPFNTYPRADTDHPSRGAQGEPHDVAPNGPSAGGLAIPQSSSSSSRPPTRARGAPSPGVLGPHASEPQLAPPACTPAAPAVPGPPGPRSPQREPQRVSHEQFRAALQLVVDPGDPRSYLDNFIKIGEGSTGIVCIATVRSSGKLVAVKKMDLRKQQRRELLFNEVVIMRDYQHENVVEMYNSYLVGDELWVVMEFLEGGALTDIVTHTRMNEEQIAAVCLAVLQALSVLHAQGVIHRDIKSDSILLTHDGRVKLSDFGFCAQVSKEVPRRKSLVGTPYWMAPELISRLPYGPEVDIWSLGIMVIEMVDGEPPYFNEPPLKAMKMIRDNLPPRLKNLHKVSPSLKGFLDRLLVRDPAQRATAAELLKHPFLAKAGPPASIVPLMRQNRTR

Row | Compound | Tm shift [Celsius]
1 | O=c1[nH]c(O)c2c1c1c3ccccc3nc1n1cncc21 | 3.8
2 | CC(C)C(CO)Nc1nc(Nc2cccc(Cl)c2)c2ncn(C(C)C)c2n1 (stereo not drawn) | 4.7
3 | NCCCn1cc(C2=C(c3c[nH]c4ccccc34)C(=O)NC2=O)c2ccccc21 | 4.27
4 | O=C1NC(=O)c2c1c1c3ccccc3n3c1c1c2c2ccccc2n1[C@@H]1CCC3O1 | 4.92
5 | COc1cc(/C=C/C(=O)CC(=O)/C=C/c2ccc(O)c(OC)c2)ccc1O | 3.34
6 | OCC(O)CCO/N=C1/C(c2c(O)[nH]c3ccccc23)=Nc2ccccc21 (stereo not drawn) | 4.7
7 | NCCNc1ncc(C(N)=O)c(Nc2cccc(C(F)(F)F)c2)n1 | 5.9
8 | NS(=O)(=O)c1ccc(Nc2nc(OCC3CCCCC3)c3[nH]cnc3n2)cc1 | 3.8
9 | O=C1NCc2c1c1c3ccccc3[nH]c1c1[nH]c3ccccc3c21 | 3.8
10 | O=C(c1ccc(Nc2nccc(-c3cc4ccccc4s3)n2)cc1)N1CCC(N2CCCC2)CC1 | 3.23
11 | CCn1cnc2c(Nc3cccc(Cl)c3)nc(N[C@@H]3CCCC[C@@H]3N)nc21 | 6.44
12 | Cc1cc(Nc2nc(-c3ccccc3)nc3ccccc23)n[nH]1 | 5.9
13 | Nc1nc(Nc2ccc(S(N)(=O)=O)cc2)nn1C(=S)Nc1c(F)cccc1F | 6.03
14 | CC(O)(O)C1(O)C[C@@H]2O[C@@]1(C)n1c3ccccc3c3c4c(c5c6ccccc6n2c5c31)C(=O)NC4 (stereo partly drawn) | 3.9
15 | Clc1ccc(-c2cnc3ccc(NC4CCOCC4)nn23)cc1 | 3.1
16 | N#CCCc1ccc2c(c1)-c1[nH]c3ccc(-n4oo4)cc3c1CC(=O)N2 | 3.68
17 | NC(=O)Nc1sc(-c2ccccc2)cc1C(N)=O | 4.28
18 | O=C1Cc2c([nH]c3ccc(Br)cc23)-c2ccccc2N1 | 4.62
19 | CC(C)n1cnc2c(Nc3cccc(Cl)c3)nc(NCCO)nc21 | 3.7
20 | N=C(N)SCCCn1cc(C2=C(c3c[nH]c4ccccc34)C(=O)NC2=O)c2ccccc21 | 3.43
21 | Cn1cc(/C=C2\C(=O)Nc3ccc(S(N)(=O)=O)cc32)c2ccccc21 | 3.69
22 | CCN(CC)CCNC(=O)c1c(C)[nH]c(/C=C2\C(=O)Nc3ccc(Cl)cc32)c1C | 6.4
23 | O=Nc1c(-c2c(O)[nH]c3ccc(I)cc23)[nH]c2ccccc12 | 3.73
